Experimental findings from BindingDB's records for patent US20240287079 (Japan Tobacco, 2024) are described below.

This experiment has as its target NACHT, LRR and PYD domains-containing protein 3 (Homo sapiens, UniProt Q96P20). The experiment in a line: Evaluation of NLRP3 Inflammasome Inhibitory Activity Assay. How it is done:
The NLRP3 inflammasome inhibitory activity of test compounds were evaluated on the basis of the inhibitory activity of the IL-1β production in THP1-Null cells (Product Number: thp-null, InvivoGen). […] The supernatant of the culture was removed, and thereto was added media for assay (25 μL/well) containing 1 μg/mL Lipopolysaccharides (Product Number: L2654, Sigma-Aldrich (registered trademark)). […] The supernatant of the culture was removed. […] A solution containing a test compound (20 μL/well) was added to test compound-setting wells. […] The supernatant of the culture was cryonically stored (set at −20° C.) until measurement of IL-1β.

Chain of NACHT, LRR and PYD domains-containing protein 3 (Q96P20 whole entry, the tested form may be a part): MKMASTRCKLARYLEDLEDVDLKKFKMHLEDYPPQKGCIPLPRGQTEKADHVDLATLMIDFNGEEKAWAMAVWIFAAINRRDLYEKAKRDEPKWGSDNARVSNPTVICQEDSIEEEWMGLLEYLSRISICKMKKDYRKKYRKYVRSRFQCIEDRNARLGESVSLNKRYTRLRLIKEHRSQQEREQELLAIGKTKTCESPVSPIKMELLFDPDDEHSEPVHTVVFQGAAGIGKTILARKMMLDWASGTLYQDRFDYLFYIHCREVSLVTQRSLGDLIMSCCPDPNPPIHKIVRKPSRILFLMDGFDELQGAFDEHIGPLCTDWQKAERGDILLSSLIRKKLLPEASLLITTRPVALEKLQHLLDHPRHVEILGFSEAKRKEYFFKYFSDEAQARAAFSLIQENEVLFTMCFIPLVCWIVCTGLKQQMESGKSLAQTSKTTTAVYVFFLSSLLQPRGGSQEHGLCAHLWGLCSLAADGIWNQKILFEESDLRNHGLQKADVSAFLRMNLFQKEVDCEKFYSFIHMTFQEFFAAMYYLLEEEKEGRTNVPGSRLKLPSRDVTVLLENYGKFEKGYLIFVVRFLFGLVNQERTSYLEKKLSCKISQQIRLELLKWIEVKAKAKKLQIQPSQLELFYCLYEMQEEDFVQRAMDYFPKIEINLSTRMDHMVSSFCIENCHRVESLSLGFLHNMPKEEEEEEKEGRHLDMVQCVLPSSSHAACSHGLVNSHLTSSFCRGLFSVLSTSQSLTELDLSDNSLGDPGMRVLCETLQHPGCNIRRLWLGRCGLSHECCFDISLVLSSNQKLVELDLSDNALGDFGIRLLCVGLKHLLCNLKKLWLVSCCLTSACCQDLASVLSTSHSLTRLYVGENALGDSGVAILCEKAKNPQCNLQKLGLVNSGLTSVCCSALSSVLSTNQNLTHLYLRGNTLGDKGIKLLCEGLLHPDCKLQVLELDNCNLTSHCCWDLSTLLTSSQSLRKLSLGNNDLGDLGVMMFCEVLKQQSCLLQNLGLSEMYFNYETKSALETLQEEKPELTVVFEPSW

In turn, `COC1(C)CN(c2nc3nn(-c4c(C)cc(Br)cc4C)cc3c(=O)[nH]2)C1` [US20240287079, Example 203] registered an IC50 of 27 nM. In the case of `Cc1cc(Br)cc(C)c1-n1cc2c(=O)[nH]c(N3CC4(COC4)C3)nc2n1` [US20240287079, Example 204], the IC50 was determined as 28 nM.

Turning to `COC1(C)CN(c2nc3nn(-c4c(C)cc(Br)cc4C)cc3c(=O)n2C)C1` [US20240287079, Example 212], half-maximal inhibition (IC50) was put at 130 nM.

`Cc1cc(Br)cc(C)c1-n1cc2c(=O)[nH]c(N3CCOC[C@H]3C)nc2n1` [US20240287079, Example 213] displayed an IC50 of 6.8 nM.

`Cc1cc(Br)cc(C)c1-n1cc2c(=O)[nH]c(N3CCO[C@@H](C)C3)nc2n1` [US20240287079, Example 214] displayed an IC50 of 19 nM.

In the case of `Cc1cc(Br)cc(C)c1-n1cc2c(=O)[nH]c(N3CCO[C@H](C)C3)nc2n1` [US20240287079, Example 215], the IC50 is 17 nM. Next, `COC1COCCN(c2nc3nn(-c4c(C)cc(Br)cc4C)cc3c(=O)[nH]2)C1` (stereo unspecified) [US20240287079, Example 216]: 12 nM; `Cc1cc(Br)cc(C)c1-n1cc2c(=O)[nH]c(N3CCOC[C@@H]3C)nc2n1` [US20240287079, Example 223]: 160 nM. With `Cc1cc(Br)cc(C)c1-n1cc2c(=O)[nH]c(N3C[C@@H](C)O[C@@H](C)C3)nc2n1` [US20240287079, Example 224] the figure was 80 nM; with `Cc1cc(Br)cc(C)c1-n1cc2c(=O)[nH]c(N3CCOC4(CC4)C3)nc2n1` [US20240287079, Example 225], 19 nM. `Cc1cc(Br)cc(C)c1-n1cc2c(=O)[nH]c(N3C4CCC3CC(F)(F)C4)nc2n1` [US20240287079, Example 238] returned an IC50 of 110 nM. With `Cc1cc(Br)cc(C)c1-n1cc2c(=O)[nH]c(N3CC4CCC(C3)C4(F)F)nc2n1` [US20240287079, Example 239] the figure was 11 nM.

As for `Cc1cc(Br)cc(C)c1-n1cc2c(=O)[nH]c(N3CCC4CC43)nc2n1` (stereo unspecified) [US20240287079, Example 240], half-maximal inhibition (IC50) required 7.1 nM. Compound `CNc1nc2nn(-c3c(C)cc(Br)cc3C)cc2c(=O)n1C` [US20240287079, Example 247] showed an IC50 of 260 nM.

With `CCC1COCCN1c1nc2nn(-c3c(C)cc(Br)cc3C)cc2c(=O)[nH]1` (stereo unspecified) [US20240287079, Example 248], the IC50 turned out to be 30 nM. Next, `Cc1cc(Br)cc(C)c1-n1cc2c(=O)[nH]c(N3CCOC4(COC4)C3)nc2n1` [US20240287079, Example 264]: 32 nM.

As a reminder, the IC50 is the midpoint of a concentration-inhibition curve. Low values mean greater potency, high ones weaker potency.
